Where two headings read alike, the source gives them in different places.
Columns and labels:
HCT116 MTAP KO cells = test: Inhibitory activity against cell proliferation (CellTiter Glo, 6 days), HCT116 MTAP KO; format: cell-based; details: for IC50: Homo sapiens, HCT-116, 144 h, HCT116 MTAP KO cells, 6 days, CellTiter Glo, read-out: HCT116 MTAP KO IC50; for Selectivity HCT 116-WT/ HCT116 MTAP KO: ratio of IC50 HCT116-WT / HCT116 MTAP KO
Procedure, shortened: (§1)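 Viability IC50s come from CellTiter Glo luminescence after 6 days' exposure to compound (8 concentrations, 4-fold steps, top 10000 nM), relative to DMSO wells. Cells were MTAP-KO or WT HCT116, seeded at 250 per well in McCoy's 5A with 10% FBS and incubated overnight before dosing.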

HCT116-WT cells = test: Inhibitory activity against cell proliferation (CellTiter Glo, 6 days), HCT116-WT; format: cell-based; details: 144 h, HCT116-WT cells, 6 days, CellTiter Glo; read-out: HCT116-WT IC50
Procedure, shortened: as §1

PRMT5-MTA = PRMT5-MTA (Homo sapiens, UniProt O14744); test: Enzymatic inhibitory activity against PRMT5-MTA (AlphaScreen); format: biochemical
Procedure, shortened: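 PRMT5/[…] (1 nM) was preincubated for 30 min at room temperature with 1 µM […] and 2.5 µM SAM, then exposed to compound (10-point, 3-fold from 1000 nM) for 15 min at 23 °C. Histone H4 substrate (5 nM) was added and reacted for 45 min at 23 °C. Symmetric dimethyl-R3 H4 was detected by AlphaScreen and IC50 calculated.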

PRMT5-MTA, sequence (O14744 whole entry): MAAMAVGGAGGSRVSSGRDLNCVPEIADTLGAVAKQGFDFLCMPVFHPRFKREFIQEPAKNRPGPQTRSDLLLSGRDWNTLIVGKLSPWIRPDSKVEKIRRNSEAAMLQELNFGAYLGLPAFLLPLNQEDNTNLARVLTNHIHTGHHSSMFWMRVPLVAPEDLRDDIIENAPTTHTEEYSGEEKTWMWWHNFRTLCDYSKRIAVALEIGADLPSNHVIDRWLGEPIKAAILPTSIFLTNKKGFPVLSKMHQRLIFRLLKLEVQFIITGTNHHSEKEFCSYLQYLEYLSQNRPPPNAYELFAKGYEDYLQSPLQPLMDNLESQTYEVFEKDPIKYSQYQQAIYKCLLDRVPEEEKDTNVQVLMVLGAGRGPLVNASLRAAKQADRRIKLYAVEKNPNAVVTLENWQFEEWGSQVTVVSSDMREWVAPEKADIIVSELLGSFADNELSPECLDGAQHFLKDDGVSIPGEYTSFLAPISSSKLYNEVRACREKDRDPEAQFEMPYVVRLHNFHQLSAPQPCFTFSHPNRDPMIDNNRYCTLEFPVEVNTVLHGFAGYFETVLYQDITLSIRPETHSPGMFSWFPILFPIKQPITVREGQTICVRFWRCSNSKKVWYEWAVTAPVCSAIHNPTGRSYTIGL
PRMT5-MTA, sequence (Q9BQA1 whole entry partner): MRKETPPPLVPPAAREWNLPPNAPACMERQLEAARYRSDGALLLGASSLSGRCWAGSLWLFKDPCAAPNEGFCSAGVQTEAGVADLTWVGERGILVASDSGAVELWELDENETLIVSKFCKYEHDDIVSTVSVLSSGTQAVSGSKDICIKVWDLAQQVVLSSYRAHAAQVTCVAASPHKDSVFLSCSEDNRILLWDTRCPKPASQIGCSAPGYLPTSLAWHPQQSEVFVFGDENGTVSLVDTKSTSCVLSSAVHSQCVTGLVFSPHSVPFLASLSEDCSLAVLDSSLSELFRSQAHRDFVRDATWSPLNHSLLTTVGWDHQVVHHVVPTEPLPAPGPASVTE

Compound	IC50 (HCT116 MTAP KO cells) [nM]	Selectivity HCT 116-WT/ HCT116 MTAP KO (HCT116 MTAP KO cells)	IC50 (HCT116-WT cells) [nM]	IC50 (PRMT5-MTA; read-out: IC50) [nM]	IC50 (PRMT5-MTA) [nM]
Cn1ncc2c(N)nc3cc(Cl)c(C(=O)N4CC5(CN4c4ncccc4F)CC(F)(F)C5)cc3c21 [Example 411, (4-amino-7-chloro-1-methyl-1H-pyrazolo [4,3-c]quinolin-8-yl)(2,2-difluoro-7-(3-fluoropyridin-2-yl)-6,7-diazaspiro[3.4]octan-6-yl)methanone]	15	14.73	221	6.3	–
Cn1ncc2c(N)nc3cc(Cl)c(C(=O)N4CC5(CN4c4ncc(Cl)cc4F)CC(F)(F)C5)cc3c21 [Example 412, (4-amino-7-chloro-1-methyl-1H-pyrazolo [4,3-c]quinolin-8-yl)(7-(5-chloro-3-fluoropyridin-2-yl)-2,2-difluoro-6,7-diazaspiro[3.4]octan-6-yl)methanone]	10	17.90	179	6.2	–
Cn1ncc2c(N)nc3cc(Cl)c(C(=O)N4CC5(CN4c4ncc(Br)cc4F)CC(F)(F)C5)cc3c21 [Example 413, (4-amino-7-chloro-1-methyl-1H-pyrazolo [4,3-c]quinolin-8-yl)(7-(5-bromo-3-fluor opyridin-2-yl)-2,2-difluoro-6,7-diazaspiro[3.4]octan-6-yl)methanone]	26	15.00	390	4.3	–
Cn1ncc2c(N)nc3cc(Cl)c(C(=O)N4CC5(CN4c4cccc(F)n4)CC(F)(F)C5)cc3c21 [Example 414, (4-amino-7-chloro-1-methyl-1H-pyrazolo [4,3-c]quinolin-8-yl)(2,2-difluoro-7-(6-fluoropyridin-2-yl)-6,7-diazaspiro[3.4]octan-6-yl)methanone]	18	16.94	305	6.2	–
CCC1CN(C(=O)c2cc3c(cc2C)nc(N)c2cnn(C)c23)N(c2ncccc2F)C1 (centres unmarked) [Example 415, (4-amino-1,7-dimethyl-1H-pyrazolo[4,3-c]quinolin-8-yl)(4-ethyl-2-(3-fluoropyridin-2-yl)pyrazolidin-1-yl)methanone]	19	42.63	810	2.6	–
COC1CN(C(=O)c2cc3c(cc2C)nc(N)c2cnn(C)c23)N(c2ncccc2F)C1 (centres unmarked) [Example 417, (4-amino-1,7-dimethyl-1H-pyrazolo[4,3-c]quinolin-8-yl)(2-(3-fluoropyridin-2-yl)-4-methoxypyrazolidin-1-yl)methanone]	20	39.50	790	3.8	–
Cn1ncc2c(N)nc3cc(Cl)c(C(=O)N4CC(C)(F)CN4c4ccccc4F)cc3c21 (centres unmarked) [Example 419]	14	16.14	226	–	4.6
Cn1ncc2c(N)nc3cc(Cl)c(C(=O)N4CC(C)(F)CN4c4ncc(Cl)cc4F)cc3c21 (centres unmarked) [Example 421, (4-amino-7-chloro-1-methyl-1H-pyrazolo [4,3-c]quinolin-8-yl)(2-(5-chloro-3-fluoropyridin-2-yl)-4-fluoro-4-methylpyrazolidin-1-yl)methanone]	29	23.07	669	3.3	–
Cc1cc2nc(N)c3cnn(C)c3c2cc1C(=O)N1CC(C)(F)CN1c1ncccc1F (centres unmarked) [Example 422, (4-amino-1,7-dimethyl-1H-pyrazolo[4,3-c]quinolin-8-yl)(4-fluoro-2-(3-fluoropyridin-2-yl)-4-methylpyrazolidin-1-yl)metha none]	21	38.38	806	9.3	–
CCC1(F)CN(C(=O)c2cc3c(cc2C)nc(N)c2cnn(C)c23)N(c2ncccc2F)C1 (centres unmarked) [Example 423, (4-amino-1,7-dimethyl-1H-pyrazolo[4,3-c]quinolin-8-yl)(4-ethyl-4-fluoro-2-(3-fluoropyridin-2-yl)pyrazolidin-1-yl)methanone]	25	27.28	682	6.7	–
Cn1ncc2c(N)nc3cc(Cl)c(C(=O)N4CC(C)(F)CN4c4ncc(F)cc4F)cc3c21 (centres unmarked) [Example 424, (4-amino-7-chloro-1-methyl-1H-pyrazolo [4,3-c]quinolin-8-yl)(2-(3,5-2 fluoropyridin-2-yl)-4-fluoro-4-methylpyrazolidin-1-yl)methanone]	23	16.26	374	7.3	–
Cn1ncc2c(N)nc3cc(Cl)c(C(=O)N4CC(C)(F)CN4c4ncccc4F)cc3c21 (centres unmarked) [Example 425, (4-amino-7-chloro-1-methyl-1H-pyrazolo [4,3-c]quinolin-8-yl)(4-fluoro-2-(3-fluoropyridin-2-yl)-4-methylpyrazolidin-1-yl)m ethanone]	54	15.74	850	8.3	–
Cc1cc2nc(N)c3cnn(C)c3c2cc1C(=O)N1CC(C)(O)CN1c1ncccc1F (centres unmarked) [Example 427, (4-amino-1,7-dimethyl-1H-pyrazolo[4,3-c]quinolin-8-yl)(2-(3-fluoropyridin-2-yl)-4-hydroxy-4-methylpyrazolin-1-yl)methanone]	235	>42.55	> 10000	6.2	–
C=C1CN(C(=O)c2cc3c(cc2Cl)nc(N)c2cnn(C)c23)N(c2ncc(Br)cc2F)C1 [Example 430, (4-amino-7-chloro-1-methyl-1H-pyrazolo [4,3-c]quinolin-8-yl)(2-(5-bromo-3-fluor opyridin-2-yl)-4-methylenepyrazolidin-1-yl)methanone]	22	26.59	585	5.5	–
C=C1CN(C(=O)c2cc3c(cc2Cl)nc(N)c2cnn(C)c23)N(c2ccccc2F)C1 [Example 431, (4-amino-7-chloro-1-methyl-1H-pyrazolo [4,3-c]quinolin-8-yl)(2-(2-fluorophenyl)-4-methylenepyrazolidin-1-yl)methanone]	10	24.80	248	5.4	–
C=C1CN(C(=O)c2cc3c(cc2Cl)nc(N)c2cnn(C)c23)N(c2ncc(F)cc2F)C1 [Example 432, (4-amino-7-chloro-1-methyl-1H-pyrazolo [4,3-c]quinolin-8-yl)(2-(3,5-2 fluoropyridin-2-yl)-4-methylenepyrazolidin-1-yl)methanone]	16	41.06	657	4.5	–
C=C1CN(C(=O)c2cc3c(cc2Cl)nc(N)c2cnn(C)c23)N(c2ncccc2F)C1 [Example 433, (4-amino-7-chloro-1-methyl-1H-pyrazolo [4,3-c]quinolin-8-yl)(2-(3-fluoropyridin-2-yl)-4-methylenepyrazolidin-1-yl)methanone]	33	33.64	1110	3.8	–
C=C1CN(C(=O)c2cc3c(cc2Cl)nc(N)c2cnn(C)c23)N(c2ncc(Cl)cc2F)C1 [Example 434, (4-amino-7-chloro-1-methyl-1H-pyrazolo [4,3-c]quinolin-8-yl)(2-(5-chloro-3-fluoropyridin-2-yl)-4-methylenepyrazolidin-1-y 1)methanone]	36	25.17	906	6.1	–
C=C1CN(C(=O)c2cc3c(cc2Cl)nc(N)c2cnn(C)c23)N(c2cccc(F)n2)C1 [Example 435, (4-amino-7-chloro-1-methyl-1H-pyrazolo [4,3-c]quinolin-8-yl)(2-(6-fluoropyridin-2-yl)-4-methylenepyrazolidin-1-yl)methanone]	15	27.13	407	7.3	–
COC1CN(C(=O)c2cc3c(cc2C)nc(N)c2cnn(C)c23)N(c2ccccc2F)C1 (centres unmarked) [Example 436]	27	27.19	734	–	4.8
COC1CN(C(=O)c2cc3c(cc2Cl)nc(N)c2cnn(C)c23)N(c2ccccc2F)C1 (centres unmarked) [Example 437, (4-amino-7-chloro-1-methyl-1H-pyrazolo [4,3-c]quinolin-8-yl)(2-(2-fluorophenyl)-4-methoxypyrazolidin-1-yl)methanone]	13	18.62	242	4.7	–
COC1CN(C(=O)c2cc3c(cc2Cl)nc(N)c2cnn(C)c23)N(c2ncc(Br)cc2F)C1 (centres unmarked) [Example 439, (4-amino-7-chloro-1-methyl-1H-pyrazolo [4,3-c]quinolin-8-yl)(2-(5-bromo-3-fluor opyridin-2-yl)-4-methoxypyrazolidin-1-yl)methanone]	37	19.86	735	5.5	–
COC1CN(C(=O)c2cc3c(cc2C)nc(N)c2cnn(C)c23)N(c2ncc(Cl)cc2F)C1 (centres unmarked) [Example 441, (4-amino-1,7-dimethyl-1H-pyrazolo[4,3-c]quinolin-8-y1)(2-(5-chloro-3-fluoropyridin-2-yl)-4-methoxypyrazolidin-1-yl)met hanone]	48	37.31	1790	7.2	–

Reference: patent EP4745134A1 (Jiangsu Yahong Meditech Co., Ltd., priority 2023, dated 2025)
